Results: patent US20170281611A1, “QUINOLINES AND THEIR USE FOR TREATING ENDOPLASMIC RETICULUM STRESS-CAUSED DISEASES” (EIGER BIOPHARMACEUTICALS, INC., priority 2014, published 2017)

How the values were obtained:
Type in all cases: in vivo
[1] = test system: 6-OHDA lesioned Wistar rats; assay: Rat unilateral 6-OHDA model of Parkinson's disease, cylinder test; conditions: D11, L-DOPA 8 mg/kg with benserazide 12.5 mg/kg IP once; 6-OHDA/Vehicle 23.17±6.45
Description: (§1) Fifty adult male Wistar rats were used. The rats from different groups (G1 to G5) were randomized. At the beginning of the study, the rats were about 5 weeks old and naive to previous administration of any drug.
(§2) A stereotaxic injection of 6-OHDA (G2 to G5) or saline (G1: sham group) was performed to induce a unilateral dopaminergic lesion on day 0 (D0). Surgery was performed on D0 under ketamine (50 mg/kg) and xylazine (10 mg/kg). The rats of G2 to G5 received a unilateral injection of 6-OHDA (6 μL) in the left substantia nigra pars compacta. Jouve et al., J. Neurosci. 2010, 30, 9919-9928. The rats of the G1 sham group were injected with saline. During surgery, local analgesia was achieved using subcutaneous injections of lidocaine. At the end of surgery, the rats were treated with buprenorphine (0.05 mg/kg, S.C.).
The cylinder test was performed only on D11, after completion of the IT and stepping tests, and 1.5 hours after the rats were dosed. The rats were placed in a Plexiglas cylinder and immediately videotaped for 15 min. During this time, the number of contacts made on the cylinder wall with the ipsilateral, contralateral, and two paws simultaneously (double contacts) were recorded and then expressed as a percentage of the total number of contacts. Lundblad et al., Eur. J. Neurosci. 2002, 15, 120-132; Jouve et al., J. Neurosci. 2010, 30, 9919-9928. […]

[2] = test system: 6-OHDA lesioned Wistar rats; assay: Rat unilateral 6-OHDA model of Parkinson's disease, initiation time (IT) test; conditions: D11, L-DOPA 8 mg/kg with benserazide 12.5 mg/kg IP once; 6-OHDA/Vehicle 37.88±6.10 sec
Description: as §1, §2
The IT test was performed both before the 6-OHDA lesion induction on D0 and on day 11 (D11) after the 6-OHDA lesion induction. Around six days (D−6) before the 6-OHDA lesion induction, the IT test was performed eight consecutive times for each limb of each rat to obtain baseline values. On D11, the IT test was performed one hour after the rats were dosed. For every test, only one of the two forelimbs of each rat was left free to move and the time that is necessary to initiate the movement toward a plane surface was recorded using 180 sec as break-off point. […]

[3] = test system: 6-OHDA lesioned Wistar rats; assay: Rat unilateral 6-OHDA model of Parkinson's disease, stepping test; conditions: D11, L-DOPA 8 mg/kg with benserazide 12.5 mg/kg IP once; 6-OHDA/Vehicle 1.19±0.24 steps
Description: as §1, §2
The stepping test was performed after IT test, both before the 6-OHDA lesion induction on D0 and on D11. Around D−6, the stepping test was performed eight consecutive times for the right paw of each animal to obtain baseline values. On D11, the stepping test was performed one hour after the rats were dosed. Each rat was hold by an experimenter and only one of the two forelimbs was left free to move above a plane surface and the other was held with the paw touching the table. The rats were then to be moved slowly forward by the experimenter. The number of adjusting steps was countered for the right paw. Olsson et al., J. Neurosci. 1995, 15, 3863-3875.
L-DOPA and benserazide (a peripheric DOPA decarboxylase inhibitor) were prepared together as a single solution containing 0.9% NaCl and 0.1% ascorbic acid.
All the dosings were given via the IP route, once daily, Sunday excluded.

N[C@@H](Cc1ccc(O)c(O)c1)C(=O)O [L-DOPA, reference compound]
percentage of double contacts [1]: 46.67±4.60 double contacts
initiation time [2]: 1.28 ± 0.21 s
number of adjusting steps [3]: 10.05±0.56 steps
